Results as given in US20170165293A1, “METHOD AND APPARATUS FOR SCAVENGING PLASMA FREE HEMOGLOBIN” (GENO LLC, priority 2015, published 2017).
Where two headings read alike, the source gives them in different places.

How the values were obtained:
[1] = tested on: LPS-induced lung injury; assay type: in vivo, mice
[2] = tested on: brain ischemia-reperfusion injury; settings: acute rat model, focal ischemia-reperfusion, inhaled; cited from earlier work
[3] = tested on: polymicrobial sepsis-induced lung injury; settings: in vivo
[4] = tested on: chrondrocytes; settings: cited from earlier work
[5] = target: cell-free Hb (Homo sapiens, UniProt P68871+P69905); settings: cited from earlier work
Sequence of cell-free Hb (P69905 2-142 limits assumed): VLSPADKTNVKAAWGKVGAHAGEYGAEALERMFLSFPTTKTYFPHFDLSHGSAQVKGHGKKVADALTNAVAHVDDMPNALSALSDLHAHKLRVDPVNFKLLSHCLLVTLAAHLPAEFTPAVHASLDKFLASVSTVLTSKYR
Sequence of cell-free Hb (P68871 2-147 limits assumed): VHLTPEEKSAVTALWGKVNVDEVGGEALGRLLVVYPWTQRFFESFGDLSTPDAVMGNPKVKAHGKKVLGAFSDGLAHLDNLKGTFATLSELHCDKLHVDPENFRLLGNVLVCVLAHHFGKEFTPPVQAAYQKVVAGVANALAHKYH

[6] = several time points; cited from earlier work
[7] = tested on: NO; settings: cited from earlier work; for NO consumption ability of plasma compared to controls with infused albumin and saline: samples collected after infusion, both p<0.0001
[8] = tested on: canines; settings: cited from earlier work; for mean SVRI compared to controls (albumin and saline) / mean MAP compared to controls (albumin and saline): 1-3 hr, after 1-hour infusion; for mean SVRI compared to controls (albumin and saline): oxyHb p<0.0001, metHb p=0.04; for mean MAP compared to controls (albumin and saline): oxyHb p<0.0001, metHb p=0.05
[9] = tested on: HIF; settings: cited from earlier work
[10] = tested on: free water-induced intravascular hemolysis; settings: in vivo; cited from earlier work

[HH] [H2, hydrogen]
LPS-induced pulmonary early and late NF-κB activation ([1]; H2 and/or NO treatment): inhibited | cell apoptosis ([1]; H2 and/or NO treatment): down-regulated | pulmonary inflammation ([1]; H2 and/or NO treatment): down-regulated | lung injury ([1]; intratracheal LPS, 2% H2 and/or 20 ppm NO for 3 hours starting at 5 minutes or 3 hours after LPS): significantly improved | brain injury [2]: markedly suppressed | lung injury in polymicrobial sepsis [3]: significantly attenuated | generation of hydroxyl radicals and peroxynitrite [4]: selectively reduce

cell-free Hb: cell-free hemoglobin infused with or without inhaled NO
species of the cell-free Hb ([5]; animals breathing air (n=2)): remained predominantly oxyhemoglobin | SVRI ([5]; infusion of cell-free Hb): increases | pulmonary vascular resistance index ([5]; infusion of cell-free Hb): increases

metHb: cell-free ferric methemoglobin (Fe3+) infused into animals
mean plasma nitrite levels compared to controls [6]: similar | NO consumption by plasma relative to the infused oxyHb-containing plasma ([7]; p=0.009): 10 fold lower | NO consumption ability of plasma compared to controls with infused albumin and saline [7]: Elevated | mean SVRI compared to controls (albumin and saline) [8]: elevations | mean MAP compared to controls (albumin and saline) [8]: elevations | vascular pressures ([8]; cell-free metHb infusions, after being reduced to oxyHb): increase | clearance / stability in plasma compared with cell-free oxyHb ([8]; in vivo): cleared faster and/or is less stable | increase in MAP compared to the oxyHb infusions ([8]; similar concentrations of Hb solutions over 1 hour, p=0.006): significantly less of an increase | increase in SVRI compared to the oxyHb infusions ([8]; similar concentrations of Hb solutions over 1 hour, p=0.04): significantly less of an increase | correlation of metHb levels converted from infused oxyHb with changes in MAP ([8]; throughout the experiment): not correlated

nitric oxide [inhaled NO]
LPS-induced pulmonary early and late NF-κB activation ([1]; mouse, in vivo): inhibited | cell apoptosis ([1]; mouse, in vivo): down-regulated | lung injury ([1]; mouse, in vivo): significantly improved | pulmonary inflammation ([1]; mouse, in vivo): down-regulated | effect on HIF ([9]; high doses and after 30 minutes): inhibitory | effect on HIF ([9]; low dose, for 30 minutes, during hypoxia): stimulates | increase in SVRI on infusion of cell-free Hb ([5]; animals breathing NO (n=2)): attenuated | increase in pulmonary vascular resistance index on infusion of cell-free Hb ([5]; animals breathing NO (n=2)): attenuated | species of the cell-free Hb ([5]; animals breathing NO (n=2)): converted to methemoglobin | lung injury in polymicrobial sepsis [3]: significantly attenuated | MAP [10]: no net effect | SVRI [10]: no net effect | effect of sodium nitroprusside on CI during hemolysis [10]: restored | effect of sodium nitroprusside on SVRI during hemolysis [10]: restored | hypertensive effects associated with intravascular free water induced hemolysis and release of cell-free oxyHb [10]: completely eliminates | impairment in the ability of the kidneys to compensate for hyponatremia (serum sodium levels) [10]: attenuated | increase in MAP caused by free water-induced intravascular hemolysis [10]: attenuated | increase in SVRI caused by free water-induced intravascular hemolysis [10]: attenuated | six-hour creatinine clearance [10]: intermediate clearance | systemic blood pressure [10]: miniscule or no measurable effects | total plasma Hb composition [10]: predominantly methemoglobin | vasoconstriction [10]: prevent vasoconstriction

oxyHb: cell-free oxyhemoglobin (Fe2+-O2) infused into animals
mean plasma nitrite levels compared to controls [6]: similar | increase in NO consumption ability of plasma, ranking ([7]; among infused groups): highest | NO consumption ability of plasma compared to controls with infused albumin and saline [7]: Elevated | mean SVRI compared to controls (albumin and saline) [8]: significant elevations | mean MAP compared to controls (albumin and saline) [8]: significant elevations | MAP ([8]; 2 hours after the oxyHb infusion ended, same rate as during the infusion): continued to steadily increase | increase in MAP ([8]; oxyHb infusion, from 0 to 3 hr, p<0.0001): 27%
